Measurements: ChEMBL document CHEMBL6127114, “Discovery of Bis-imidazolecarboxamide Derivatives as Novel, Potent, and Selective TNIK Inhibitors for the Treatment of Idiopathic Pulmonary Fibrosis” (J Med Chem, 2024)
In brackets after ≈: the same amount, converted by molar mass.

Legend:
[1] = molecular target: T1, TRAF2 and NCK-interacting protein kinase (Homo sapiens, UniProt Q9UKE5)
LX-2 [2] = assay: cells; settings: Homo sapiens
LX-2 [3] = assay: cells; settings: Homo sapiens; remark: listed apart in the source
in vitro = settings: human, lx-2
[4] = Metabolic stability in human liver microsomes assessed as intrinsic clearance preincubated for 60 mins followed by NADPH addition and measured after 5 to 60 mins by LC-MS/MS analysis; assay type: ADME, Microsome; settings: time 65-120 min, read-out: CLH
[5] = Metabolic stability in mouse liver microsomes assessed as intrinsic clearance preincubated for 60 mins followed by NADPH addition and measured after 5 to 60 mins by LC-MS/MS analysis; assay type: ADME, Microsome; settings: time 65-120 min, read-out: CLH
physchem = settings: buffer, pH 7.4
[6] = Apparent permeability in human Caco-2 cells; assay type: ADME, cell-based
[7] = molecular target: T2, Muscarinic acetylcholine receptor M1 (Homo sapiens, UniProt P11229); assay: Inhibition of human CHRM1 by Eurofins DiscoverX method
T2 sequence (P11229 whole entry): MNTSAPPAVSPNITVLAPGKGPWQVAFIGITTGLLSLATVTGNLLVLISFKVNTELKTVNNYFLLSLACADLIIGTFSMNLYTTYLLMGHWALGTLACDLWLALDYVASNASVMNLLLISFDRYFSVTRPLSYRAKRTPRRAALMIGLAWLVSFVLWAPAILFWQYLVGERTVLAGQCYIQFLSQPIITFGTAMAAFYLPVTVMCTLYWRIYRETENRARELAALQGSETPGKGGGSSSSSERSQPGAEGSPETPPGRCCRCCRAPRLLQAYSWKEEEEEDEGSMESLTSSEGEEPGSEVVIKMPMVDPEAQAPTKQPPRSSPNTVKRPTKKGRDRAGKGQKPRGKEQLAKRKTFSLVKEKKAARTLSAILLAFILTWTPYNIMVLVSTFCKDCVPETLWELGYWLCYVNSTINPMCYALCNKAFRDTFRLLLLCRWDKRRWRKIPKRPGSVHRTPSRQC

Mus musculus [8] = assay: Anti-hepatic fibrosis activity in CCL4-induced male C57BL6/J mouse hepatic fibrosis model assessed as change in body weight at 3 mg/kg, po meausred after 2 weeks (reference value: -1.8%); assay type: functional
Mus musculus [9] = assay: Anti-hepatic fibrosis activity in CCL4-induced male C57BL6/J mouse hepatic fibrosis model assessed as change in body weight at 10 mg/kg, po meausred after 2 weeks (reference value: -1.8%); assay type: functional
[10] = Inhibition of fibronectin-1 protein expression in human Primary bronchial epithelial cell; assay type: functional, cell-based
[11] = molecular target: T1, TRAF2 and NCK-interacting protein kinase; remark: listed apart in the source

T1 sequence (Q9UKE5 whole entry): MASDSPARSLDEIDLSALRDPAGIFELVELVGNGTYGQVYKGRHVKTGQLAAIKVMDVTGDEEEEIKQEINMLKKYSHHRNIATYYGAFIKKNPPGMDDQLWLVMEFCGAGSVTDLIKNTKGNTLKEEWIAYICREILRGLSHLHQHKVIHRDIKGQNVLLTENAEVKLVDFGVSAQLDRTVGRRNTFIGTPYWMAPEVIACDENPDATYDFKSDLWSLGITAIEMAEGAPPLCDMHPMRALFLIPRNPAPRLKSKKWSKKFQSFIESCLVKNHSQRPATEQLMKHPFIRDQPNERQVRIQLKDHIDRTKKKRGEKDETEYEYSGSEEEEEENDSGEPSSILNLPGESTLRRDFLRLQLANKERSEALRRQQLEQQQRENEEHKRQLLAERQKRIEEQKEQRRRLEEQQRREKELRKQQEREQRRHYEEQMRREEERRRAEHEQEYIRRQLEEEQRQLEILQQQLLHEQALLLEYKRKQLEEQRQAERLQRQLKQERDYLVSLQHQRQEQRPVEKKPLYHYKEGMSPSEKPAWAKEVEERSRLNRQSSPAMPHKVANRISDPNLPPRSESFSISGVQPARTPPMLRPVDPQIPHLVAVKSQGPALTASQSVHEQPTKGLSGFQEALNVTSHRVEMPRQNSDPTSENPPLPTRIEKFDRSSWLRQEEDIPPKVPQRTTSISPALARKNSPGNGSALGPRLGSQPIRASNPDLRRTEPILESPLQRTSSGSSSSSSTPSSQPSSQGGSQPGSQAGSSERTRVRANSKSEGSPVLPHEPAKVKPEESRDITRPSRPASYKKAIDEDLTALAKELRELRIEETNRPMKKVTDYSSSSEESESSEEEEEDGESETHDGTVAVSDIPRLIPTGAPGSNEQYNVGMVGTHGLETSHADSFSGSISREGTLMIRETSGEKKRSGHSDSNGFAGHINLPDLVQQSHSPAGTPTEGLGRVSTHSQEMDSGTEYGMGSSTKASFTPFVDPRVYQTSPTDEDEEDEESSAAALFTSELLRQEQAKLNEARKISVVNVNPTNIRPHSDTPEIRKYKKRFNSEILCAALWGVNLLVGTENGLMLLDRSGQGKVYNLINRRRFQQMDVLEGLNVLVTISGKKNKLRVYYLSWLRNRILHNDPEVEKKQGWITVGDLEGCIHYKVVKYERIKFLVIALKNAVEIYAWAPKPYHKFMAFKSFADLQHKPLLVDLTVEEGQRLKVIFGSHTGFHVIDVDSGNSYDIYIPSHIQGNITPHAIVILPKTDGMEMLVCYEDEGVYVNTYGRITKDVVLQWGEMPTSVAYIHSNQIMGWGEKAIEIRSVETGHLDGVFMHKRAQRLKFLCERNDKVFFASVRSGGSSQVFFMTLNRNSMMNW

Row | Compound | IC50 [1] | IC50 (LX-2 [2]) | IC50 (LX-2 [3]) | IC50 at 72 h (in vitro) | other results
1 | CC(C)n1cnc(-c2ccc(F)cc2)c1-c1nc(C(=O)Nc2ccc(N(CCO)CCO)cc2)c[nH]1 | 79.1 nM | 839 nM | 904 nM | > 100000 nM | 
2 | CC(C)n1cnc(-c2ccc(F)cc2)c1-c1nc(C(=O)Nc2ccc(N3CC4CCC(C3)N4C)cc2)c[nH]1 | 4 nM | 42 nM | 77 nM | 22600 nM | 
3 | CC1CN(c2ccc(NC(=O)c3c[nH]c(-c4c(-c5ccc(F)cc5)ncn4C(C)C)n3)cc2)CC(C)N1C (stereo not given) | 18 nM | 71 nM | 71 nM | 12300 nM | 
4 | CC(C)n1cnc(-c2ccc(F)cc2)c1-c1nc(C(=O)Nc2ccc(C(=O)O)cc2)c[nH]1 | 149 nM | > 10000 nM | > 10000 nM | > 100000 nM | Papp [6]: 0.07 ×10⁻⁶ cm/s
5 | CC(C)n1cnc(-c2ccc(F)cc2)c1-c1ccc(C(=O)Nc2ccc(CCO)cc2)o1 | 40.2 nM |  |  |  | microsomal CLint [4]: > 150 µL/min/mg; microsomal CLint [5]: > 150 µL/min/mg; solubility kinetic at 24 h (physchem): < 2 µM
6 | CC(C)n1cnc(-c2ccc(F)cc2)c1-c1nc(C(=O)Nc2ccc(N3CCN(CC(F)(F)F)CC3)cc2)c[nH]1 | 42 nM | 519 nM | 125 nM | > 100000 nM | 
7 | CC(C)n1cnc(-c2ccc(F)cc2)c1-c1nc(C(=O)Nc2ccc(N3CCN(C)C(=O)C3)cc2)c[nH]1 | 47 nM | 898 nM | 713 nM | > 100000 nM | 
8 | CC(C)n1cnc(-c2ccc(F)cc2)c1-c1nc(C(=O)Nc2ccc(N3CCN(CCO)CC3)cc2)c[nH]1 | 21.1 nM | 123 nM | 162 nM | > 100000 nM | 
9 | CC(C)n1cnc(-c2ccc(F)cc2)c1-c1nc(C(=O)Nc2ccc(CCCCC(=O)O)cc2)c[nH]1 | 51 nM | > 10000 nM | > 10000 nM | > 100000 nM | Papp [6]: 0.07 ×10⁻⁶ cm/s
10 | CC(C)n1cnc(-c2ccc(F)cc2)c1-c1nc(C(=O)Nc2ccc(N3CCN(C)CC3)cc2)c[nH]1 |  |  |  |  | IC50 [7]: 8400 nM; Activity (Mus musculus [8]): -0.671%; Activity (Mus musculus [9]): 6.065%; IC50 [10]: 250 nM
11 | CC(C)n1cnc(-c2ccc(F)c(F)c2)c1-c1nc(C(=O)Nc2ccc(N3CCN(C)CC3)cc2)c[nH]1 | 51 nM |  |  |  | 
12 | CC(C)n1cnc(-c2ccc(F)cc2)c1-c1nc(C(=O)Nc2ccc(N3CCN(C(N)=O)CC3)cc2)c[nH]1 | 199 nM |  |  |  | 
13 | CC(C)n1cnc(-c2ccc(F)cc2)c1-c1nc(C(=O)Nc2ccc(CCC(=O)O)cc2)c[nH]1 | 46.3 nM | > 10000 nM | > 10000 nM | > 100000 nM | Papp [6]: 0.07 ×10⁻⁶ cm/s
14 | CC(C)n1cnc(-c2ccc(F)cc2)c1-c1nc(C(=O)Nc2ccc(N3CCNCC3)cc2)c[nH]1 | 11.1 nM | 81 nM | 65 nM | 40500 nM | 
15 | CC(C)n1cnc(-c2ccc(F)cc2)c1-c1nc(C(=O)Nc2ccc(N3CC[N+](C)([O-])CC3)cc2)c[nH]1 | 34.3 nM | 115 nM | > 10000 nM | > 100000 nM | 
16 | CC(C)n1cnc(-c2ccc(Cl)cc2)c1-c1nc(C(=O)Nc2ccc(N3CCN(C)CC3)cc2)c[nH]1 | 71.3 nM |  |  |  | 
17 | CC(C)n1cnc(-c2ccc(C(F)(F)F)cc2)c1-c1nc(C(=O)Nc2ccc(N3CCN(C)CC3)cc2)c[nH]1 | > 10000 nM |  |  |  | 
18 | Cn1ccc2cc(-c3ccc4c(c3)SCCN(Cc3ccc(F)cc3)C4=O)cnc21 |  |  |  |  | IC50 [11]: 26 nM

The remaining compounds from weak to strong by IC50 [1], led by results:

Row | IC50 [1] | IC50 (LX-2 [2]) | IC50 (LX-2 [3]) | IC50 at 72 h (in vitro) | Compound | other results
19 | 10.6 nM |  |  |  | CC(C)n1cnc(-c2ccc(F)cc2)c1-c1nc(C(=O)Nc2ccc(N3CCN(S(N)(=O)=O)CC3)cc2)c[nH]1 | solubility kinetic at 24 h (physchem): < 2 µM
20 | 10.5 nM |  |  |  | CC(C)n1cnc(-c2ccc(F)cc2)c1-c1ccc(C(=O)Nc2ccc(N3CCN(C)CC3)cc2)o1 | microsomal CLint [4]: > 150 µL/min/mg; microsomal CLint [5]: > 150 µL/min/mg; solubility kinetic at 24 h (physchem): 40 µM (≈ 19.5 µg/mL)
21 | 9.5 nM | 306 nM | 264 nM | > 100000 nM | CC(C)n1cnc(-c2ccc(F)cc2)c1-c1nc(C(=O)Nc2ccc(CCO)cc2)c[nH]1 | 
22 | 6 nM | 144 nM | 572 nM | > 100000 nM | CC(=O)N1CCN(c2ccc(NC(=O)c3c[nH]c(-c4c(-c5ccc(F)cc5)ncn4C(C)C)n3)cc2)CC1 | 
23 | 5.9 nM |  |  |  | CC(C)n1cnc(-c2ccc(F)cc2)c1-c1cccc(C(=O)Nc2ccc(N3CCN(C)CC3)cc2)n1 | microsomal CLint [4]: 119 µL/min/mg; microsomal CLint [5]: 122 µL/min/mg; solubility kinetic at 24 h (physchem): 105 µM (≈ 52.4 µg/mL)
24 | 5.7 nM |  |  |  | CC(C)n1cnc(-c2ccc(F)cc2)c1-c1cccc(C(=O)Nc2ccc(CCO)cc2)n1 | microsomal CLint [4]: 161 µL/min/mg; microsomal CLint [5]: 124 µL/min/mg; solubility kinetic at 24 h (physchem): < 2 µM
25 | 5.7 nM |  |  |  | CC(C)n1cnc(-c2ccc(F)cc2)c1-c1cccc(C(=O)Nc2ccc(CCC(=O)O)cc2)n1 | microsomal CLint [4]: < 9.6 µL/min/mg; microsomal CLint [5]: < 9.6 µL/min/mg; solubility kinetic at 24 h (physchem): < 2 µM
26 | 5.2 nM |  |  |  | CC(C)n1cnc(-c2ccc(F)cc2)c1-c1cccc(C(=O)Nc2ccc(N3CCN(CCO)CC3)cc2)n1 | microsomal CLint [4]: 141 µL/min/mg; microsomal CLint [5]: 69.5 µL/min/mg; solubility kinetic at 24 h (physchem): 5.3 µM (≈ 2.8 µg/mL)
